This note sets out measurements from ChEMBL document CHEMBL1201862, “PubChem BioAssay data set” (2004).

Targets include Cytochrome P450 2D6 (Homo sapiens, UniProt P10635); Cytochrome P450 2C9 (Homo sapiens, UniProt P11712); Cytochrome P450 3A4 (Homo sapiens, UniProt P08684).
The next test addresses Cytochrome P450 2C19 (Homo sapiens, UniProt P33261). The experiment in a line: Cytochrome panel assay with activity outcomes. Panel member name: p450-cyp2c19 Compounds with AC50 equal or less than 10 uM are considered active. It counts as functional. As to conditions: read-out: AC50.
Test [1] addresses T1, Heat shock factor protein 1 (Mus musculus, UniProt P38532).
T1 sequence (P38532 whole entry): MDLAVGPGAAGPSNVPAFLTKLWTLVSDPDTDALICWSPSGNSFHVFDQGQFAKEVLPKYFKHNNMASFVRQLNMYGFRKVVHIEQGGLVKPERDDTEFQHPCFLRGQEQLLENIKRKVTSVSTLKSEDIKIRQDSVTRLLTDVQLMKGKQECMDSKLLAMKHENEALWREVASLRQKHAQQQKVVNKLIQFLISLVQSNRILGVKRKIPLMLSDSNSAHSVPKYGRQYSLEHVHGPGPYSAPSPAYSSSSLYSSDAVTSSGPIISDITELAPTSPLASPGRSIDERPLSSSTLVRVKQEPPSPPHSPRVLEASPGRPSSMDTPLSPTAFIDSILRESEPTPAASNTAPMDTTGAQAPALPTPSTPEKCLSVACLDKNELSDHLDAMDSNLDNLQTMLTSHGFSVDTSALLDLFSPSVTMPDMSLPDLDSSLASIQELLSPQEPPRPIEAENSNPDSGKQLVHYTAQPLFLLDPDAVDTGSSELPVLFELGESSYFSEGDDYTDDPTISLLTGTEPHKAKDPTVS
The experiment in a line: decrease of HSF1-responsive luciferase luminescence – cell-based, NIH3T3, dose retest, confirmation (AID 2382).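 Further: NIH3T3 fibroblasts with HSF1-driven luciferase reporter stressed by proteasome inhibitor MG132; luminescence from HSF1-driven luciferase expression after 8 hours of MG132 stress.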 Format: functional.

In test [2] the target is T2, Rac GTPase-activating protein 1 (Homo sapiens, UniProt Q9H0H5).
T2 sequence (Q9H0H5 whole entry): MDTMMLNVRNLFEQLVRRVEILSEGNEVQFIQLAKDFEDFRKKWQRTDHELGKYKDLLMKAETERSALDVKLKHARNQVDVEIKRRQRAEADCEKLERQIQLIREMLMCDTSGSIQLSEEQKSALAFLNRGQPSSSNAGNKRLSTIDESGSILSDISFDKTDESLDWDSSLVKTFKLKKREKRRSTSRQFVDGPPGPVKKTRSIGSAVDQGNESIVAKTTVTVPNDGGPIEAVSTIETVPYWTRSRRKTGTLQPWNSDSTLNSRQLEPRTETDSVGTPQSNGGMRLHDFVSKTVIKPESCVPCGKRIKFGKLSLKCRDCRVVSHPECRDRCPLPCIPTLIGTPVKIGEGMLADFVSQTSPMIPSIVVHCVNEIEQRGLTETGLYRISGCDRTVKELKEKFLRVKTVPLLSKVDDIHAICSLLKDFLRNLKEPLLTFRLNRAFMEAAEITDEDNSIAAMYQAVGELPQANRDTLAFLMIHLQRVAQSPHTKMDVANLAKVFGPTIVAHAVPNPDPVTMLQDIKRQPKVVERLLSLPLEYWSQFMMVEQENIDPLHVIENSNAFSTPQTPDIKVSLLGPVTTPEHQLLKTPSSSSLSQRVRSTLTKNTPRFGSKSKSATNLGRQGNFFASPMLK
The experiment in a line: blockers of MgcRacGAP-driven Rac1 GTP hydrolysis – biochemical, ADP Hunter fluorescence, primary and confirmatory, confirmation (AID 624330). Format: functional.

A short description of test [3]: Trypanosoma cruzi growth suppression in host cells – NIH3T3 host cells, beta-gal luminescence, confirmation (AID 2044).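 Further: intracellular parasites grown in NIH/3T3 mouse fibroblasts as host cells; luminescent beta-galactosidase reporter signal from transgenic T. cruzi replicating inside host cells; inhibitors lower the luminescence signal.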 It counts as functional, cell-based.
Test [4] can be described thus: NIH3T3 cell viability loss – ATP luminescence, mouse fibroblasts, counter-screen, dose response (AID 2010).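 Further: cells exposed to compound for about 90 hours before reading.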 Format: functional, cell-based.
Test [5] in a line: NIH-3T3 fibroblast cytotoxicity, dose response, cytotoxicity control, cell-based, fluorescence, Alamar Blue, secondary assay (AID 2327).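 Further: NIH-3T3 mouse fibroblasts cultured with fluconazole at 8 µg/mL.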 Format: functional.
A further test can be described thus: cells. It counts as functional.
Another test concerns INS1. The experiment in a line: INS-1E survival protection against cytokine death – cell-based, luminescence, retest, dose response (AID 449756).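 Further: cell death triggered by IL-1 beta plus TNF-alpha plus IFN-gamma mixture; protective hits raise ATP signal compared with cytokine alone wells.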 It counts as functional. As to conditions: Rattus norvegicus.
Test [6] in a line: Luminescence Cell-Based Dose Retest to Confirm Inhibitors of Cancer Stem Cells. [Related pubchem assays (depositor defined):AID2717, AID2721]. As to conditions: Homo sapiens. Format: functional.

The source made the active and inactive calls.

Sequence of Cytochrome P450 3A4 (P08684 whole entry): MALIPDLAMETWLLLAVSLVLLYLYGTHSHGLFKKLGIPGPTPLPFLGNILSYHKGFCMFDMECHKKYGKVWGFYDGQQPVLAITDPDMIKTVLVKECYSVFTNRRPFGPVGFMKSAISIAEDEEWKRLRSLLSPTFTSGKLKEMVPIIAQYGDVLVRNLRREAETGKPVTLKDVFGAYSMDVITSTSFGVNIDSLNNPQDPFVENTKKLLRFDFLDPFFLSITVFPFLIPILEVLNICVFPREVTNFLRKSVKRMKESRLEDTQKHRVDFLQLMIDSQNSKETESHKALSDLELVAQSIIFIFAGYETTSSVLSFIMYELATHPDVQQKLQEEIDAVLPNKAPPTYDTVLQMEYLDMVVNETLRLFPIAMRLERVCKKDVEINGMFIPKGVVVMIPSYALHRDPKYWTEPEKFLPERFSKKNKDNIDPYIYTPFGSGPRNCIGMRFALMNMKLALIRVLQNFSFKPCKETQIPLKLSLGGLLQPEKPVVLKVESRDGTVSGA
Sequence of Cytochrome P450 2D6 (P10635 whole entry): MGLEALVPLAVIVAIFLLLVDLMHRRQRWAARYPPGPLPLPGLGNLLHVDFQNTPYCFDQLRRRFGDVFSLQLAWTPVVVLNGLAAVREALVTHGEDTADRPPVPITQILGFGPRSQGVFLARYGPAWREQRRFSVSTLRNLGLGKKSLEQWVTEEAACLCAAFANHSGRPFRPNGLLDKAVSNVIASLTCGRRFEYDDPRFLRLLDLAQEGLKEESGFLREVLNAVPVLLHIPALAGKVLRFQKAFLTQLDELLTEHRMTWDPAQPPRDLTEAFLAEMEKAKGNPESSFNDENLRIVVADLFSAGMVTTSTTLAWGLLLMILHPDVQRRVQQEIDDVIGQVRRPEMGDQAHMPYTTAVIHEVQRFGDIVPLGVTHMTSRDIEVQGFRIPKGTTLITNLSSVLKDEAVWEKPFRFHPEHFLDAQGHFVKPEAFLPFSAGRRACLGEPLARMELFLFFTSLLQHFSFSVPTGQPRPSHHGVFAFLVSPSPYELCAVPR
Sequence of Cytochrome P450 2C19 (P33261 whole entry): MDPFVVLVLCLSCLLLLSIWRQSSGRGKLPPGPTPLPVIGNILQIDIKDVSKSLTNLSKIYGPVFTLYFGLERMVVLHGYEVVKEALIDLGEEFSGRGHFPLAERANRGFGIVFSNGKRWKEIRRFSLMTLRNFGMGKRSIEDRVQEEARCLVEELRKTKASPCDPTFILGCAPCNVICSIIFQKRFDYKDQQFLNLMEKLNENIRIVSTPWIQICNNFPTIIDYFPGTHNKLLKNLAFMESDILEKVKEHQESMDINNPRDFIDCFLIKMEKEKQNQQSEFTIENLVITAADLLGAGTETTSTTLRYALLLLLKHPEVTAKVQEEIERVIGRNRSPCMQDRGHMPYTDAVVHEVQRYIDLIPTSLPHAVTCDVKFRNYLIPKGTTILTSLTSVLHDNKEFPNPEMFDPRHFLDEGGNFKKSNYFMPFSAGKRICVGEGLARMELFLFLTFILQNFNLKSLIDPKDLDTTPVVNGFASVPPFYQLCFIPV
Sequence of Cytochrome P450 2C9 (P11712 whole entry): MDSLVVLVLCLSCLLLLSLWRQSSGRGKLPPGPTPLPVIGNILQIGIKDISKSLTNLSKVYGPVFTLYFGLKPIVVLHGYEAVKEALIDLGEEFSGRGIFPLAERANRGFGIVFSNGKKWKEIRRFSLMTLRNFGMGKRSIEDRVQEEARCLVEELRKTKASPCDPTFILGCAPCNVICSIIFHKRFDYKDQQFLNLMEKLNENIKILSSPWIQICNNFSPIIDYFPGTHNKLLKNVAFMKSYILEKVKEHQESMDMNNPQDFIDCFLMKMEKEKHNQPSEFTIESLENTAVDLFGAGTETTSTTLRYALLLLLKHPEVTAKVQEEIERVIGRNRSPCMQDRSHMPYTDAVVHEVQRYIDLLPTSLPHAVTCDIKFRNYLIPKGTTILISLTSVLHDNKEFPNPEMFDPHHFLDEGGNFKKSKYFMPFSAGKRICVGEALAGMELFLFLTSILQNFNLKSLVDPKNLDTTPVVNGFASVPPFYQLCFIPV

For the compound `COc1ncc2nc(CCc3ccccc3)c(=O)n(C)c2n1`, the half-maximal activity concentration (AC50) (usually the midpoint of the concentration-response curve, whichever way the signal moves) on Cytochrome P450 2C19 is 25.1 µM (inconclusive); on Cytochrome P450 2D6, 20 µM (inconclusive).
As for `CCCc1cc2c(n1Cc1cc(F)cc(F)c1)C(C)C1CN(C(=O)c3ccccc3)C(C)(C(=O)OC)C21` (configuration not stated), the concentration at half-maximal activity (AC50) on Cytochrome P450 2C19 was 39.8 µM (inconclusive); on Cytochrome P450 2D6, 25.1 µM (inconclusive).
On to `Cc1nc2sccc2c(=O)n1-c1cccc(Cl)c1`, for which the half-maximal activity concentration (AC50) at Cytochrome P450 2C9 is 20 µM (inconclusive); on Cytochrome P450 2D6, 12.6 µM (inconclusive).
For the compound `CC1(C)CC(=O)C2=C(C1)N(c1ccc(F)cc1)C(=O)CC2c1ccccc1` (configuration not stated), the EC50 – broadly, the midpoint of the concentration-response curve – in [1] is given as > 195 µM (not active).
Take `COc1cc(OC)c(CN2CCCN(C)CC2)cc1Br`: the IC50 (as a rule, the concentration that inhibits the measured activity by half) in test [2] was 107 µM (active).
With `Cc1ccc(NC(=O)CNCCCN2CCOCC2)cc1S(=O)(=O)N1CCCCC1`, in [2], the IC50 is 76.5 µM (active).
For `COc1nc(Nc2ccc(O)cc2)nc(OC(C(F)(F)F)C(F)(F)F)n1`, in [2], the 50% inhibitory concentration (IC50) was 35.1 µM (active).
`Cn1cc(/C=C(\C#N)C(=O)Nc2cccc([N+](=O)[O-])c2)c2ccccc21`: the EC50 in test [1] is 4.14 µM (active).
Take `S=C(NCCSCc1c(Cl)cccc1Cl)Nc1ccccc1`: the results for the concentration for a half-maximal effect (EC50) in test [3], in test [4] and in test [5] were 2.94 µM (active), > 60 µM (not active) and > 160 µM (inactive), respectively. Besides, the half-maximal activity concentration (AC50) at Cytochrome P450 2C9 was 10 µM (inconclusive).
For the compound `COc1cc(/C=C/C(=O)O)cc(S(=O)(=O)NCCCO)c1OC`, the AC50 at Cytochrome P450 2C9 was 10 µM (inconclusive).
On to `Cc1ccc(C)c(NC(=O)c2cc([N+](=O)[O-])cc([N+](=O)[O-])c2)c1`, for which, in “cells”, the 50% inhibitory concentration (IC50) was 10.1 µM (active).
`C=C1SC(Nc2c(C)cc(C)cc2C)=NC12CCCCC2`: the EC50 in test [3] was 0.561 µM (active); in test [1], > 195 µM (not active); in test [4] it was > 60 µM (not active).
On to `Cc1cc(=O)oc(C)c1C(=O)NCc1cccnc1`, for which the values for the AC50 at Cytochrome P450 2C9 and at Cytochrome P450 3A4 were 3.16 µM (inconclusive) and 25.1 µM (inconclusive), respectively.
For the compound `CCCn1nnnc1-c1cccc(Cl)c1`, the AC50 at Cytochrome P450 2C9 is 1.26 µM (inconclusive).
For the compound `Cc1ccc(C(=O)N2N=C(c3ccc(Br)cc3)CC2c2ccccc2O)cc1` (configuration not stated), the concentration at half-maximal activity (AC50) in the test with INS1 is 7.42 µM (active); in test [6], 3.63 µM (active). For the same compound, the figures for the concentration giving a half-maximal response (EC50) in test [3] and in test [4] were 2.15 µM (active) and 13.6 µM (active), respectively.
For the compound `COc1cc(N)ccc1NC(=O)c1cccs1`, the IC50 in test [2] was 106 µM (active).
For `CCn1nnc(NC(=O)COc2ccc(C3CCCCC3)cc2)n1`, in “cells”, the half-maximal inhibitory concentration (IC50) was 18.4 µM (active).
For `CC(=O)COc1ccccc1OC(=O)c1ccco1`, the 50% effective concentration (EC50) in test [1] is > 195 µM (not active).
The same measure, in the same setting: next, `COc1ccc2nc(NC(=O)CN3CCOCC3)sc2c1`: > 195 µM (not active).
With `CN(Cc1ccccc1)C(=O)C1CCCN(Cc2ccc(Cl)cc2)C1` (configuration not stated), in test [2], the IC50 is 161 µM (active).
On to `NC(=O)CC(NC(=O)Cc1ccc(Br)cc1)c1ccc(N2CCC(Cc3ccccc3)CC2)c([N+](=O)[O-])c1` (configuration not stated), for which, in test [6], the half-maximal activity concentration (AC50) was 12.3 µM (active).
Consider `OCC#CCSc1nnc(-c2ccc(Br)cc2)o1`, for which the half-inhibitory concentration (IC50) in “cells” is 5.2 µM (active).
In the case of `COc1cccc2cc(C(=O)OC3CCN(C)CC3)c(=O)oc12`, the 50% effective concentration (EC50) in test [1] is recorded as > 195 µM (not active).
Consider `Brc1c(-c2ccc3c(c2)OCO3)nc2ncccn12`, for which, in “cells”, the IC50 was 4.7 µM (active).
Turning to `CNc1ncc(C(=O)c2ccccc2)s1`, the figures for the AC50 at Cytochrome P450 2C19, at Cytochrome P450 2C9 and on Cytochrome P450 3A4 were 2.24 µM (inconclusive), 7.94 µM (inconclusive) and 28.2 µM (inconclusive), respectively.
For `COc1ccc(CNc2ncc(-c3ccc(F)cc3)n2C)cc1OC`, in test [2], the IC50 is 56.8 µM (active).
Same read-out and setting: next, `C=CCNC(=S)N1CCN(Cc2ccc3c(c2)OCO3)CC1`: 158 µM (active).
As for `CS(=O)(=O)N(CC(=O)NCc1ccccc1)C1CCCCC1`, in test [1], the EC50 was > 195 µM (not active).
On the same count and under the same terms, next, `O=C1CCC(=O)N1CNc1ccccn1`: > 195 µM (not active).
Turning to `CCOC(=O)c1c(NC(=O)CNC2CCCc3ccccc32)sc(C(N)=O)c1C` (configuration not stated), in test [1], the EC50 was 25 µM (active).
Regarding `Cc1noc(C)c1CS(=O)(=O)c1ccc(Br)cc1`, the AC50 on Cytochrome P450 2C9 is 31.6 µM (inconclusive).
Consider `O=C(NCc1ccc2c(c1)OCO2)c1cc2c(s1)CS(=O)(=O)C2`, for which the EC50 in [1] is listed as > 195 µM (not active).
Still for that read-out and setting: for `CCCCOc1ccc(N2CC(C(=O)NCCc3ccc(OC)c(OC)c3)CC2=O)cc1` (configuration not stated) the value was > 195 µM (not active).
Turning to `CCNC(=O)NC(=O)CSc1nc2ccccc2n1CC(C)C`, the half-maximal activity concentration (AC50) on Cytochrome P450 2C9 is 20 µM (inconclusive); at Cytochrome P450 2D6, 14.1 µM (inconclusive).
As for `c1csc(CN2CCCC3(CCNCC3)C2)n1`, the half-maximal activity concentration (AC50) at Cytochrome P450 2C9 was 31.6 µM (inconclusive).
Regarding `CCC1C=CC=CC[C@H](C)[C@@H](O)[C@](C)(O)C(=O)[C@@H](C)[C@H](O)[C@@H](C)C(=O)[C@H](C)[C@@H](O)[C@H](C)C=CC(=O)OC2[C@@H](C)C(CC1)OC1(CC[C@@H](C)C(C[C@H](C)O)O1)[C@@H]2C` (some centres not stated), the concentration at half-maximal activity (AC50) in [6] was 2.9 µM (active).
As for `CCc1cccc(NC(=O)COC(=O)/C=C/c2cccs2)c1`, the EC50 in test [1] is reported as > 195 µM (not active).
Regarding `NCCc1c[nH]c2ccc(OC(=O)C(=O)O)cc12`, the half-maximal activity concentration (AC50) was 1.58 µM (inconclusive) on Cytochrome P450 2C19 and 3.98 µM (inconclusive) at Cytochrome P450 2C9.
As to `COc1cc2c(cc1OC)C(C(=O)Nc1cccc(C)n1)C(c1cccnc1)N(C)C2=O` (configuration not stated), the AC50 on Cytochrome P450 2C9 is 0.00562 µM (inconclusive); on Cytochrome P450 3A4 it was 15.8 µM (inconclusive).
For `CCCCN=C(NNc1ccc(Br)cc1)C(=O)OCC`, the half-maximal activity concentration (AC50) in test [6] is 2.89 µM (active).
`CCOC(=O)c1nn(-c2ccccc2)c2nc(Nc3ccccc3)cc(=O)n12`: in “cells”, the 50% inhibitory concentration (IC50) is 5.99 µM (active).
In the case of `COCCNC(=O)c1ccc2c(c1)ncn2-c1ccc(F)c(F)c1`, the values for the half-maximal activity concentration (AC50) on Cytochrome P450 2C19 and on Cytochrome P450 2C9 were 28.2 µM (inconclusive) and 17.8 µM (inconclusive), respectively.
For the compound `CCOC(=O)c1sc(C)c(C(=O)NCC(C)(C)CN(C)C)c1N`, on Cytochrome P450 2C9, the AC50 was 39.8 µM (inconclusive).
The same measure, in the same setting: next, `COc1ncc2nc(CCc3ccccc3)c(=O)n(-c3ccccc3)c2n1`: 25.1 µM (inconclusive).
Turning to `CCOc1ncccc1C(=O)OCC(=O)N1CCc2ccccc21`, in the test “cells”, the IC50 was 13.9 µM (active).
Same read-out and setting: next, `COC(=O)COc1ccc2c(=O)c(-c3ccccc3OC)coc2c1`: 5.9 µM (active).
Regarding `COC(=O)[C@@H]1C[C@H]1[C@@H](NC(=O)c1cc(C)on1)c1ccccc1`, the results for the concentration at half-maximal activity (AC50) on Cytochrome P450 2C9 and on Cytochrome P450 3A4 were 39.8 µM (inconclusive) and 31.6 µM (inconclusive), respectively.
For `CNC(C)C(=O)NC(C(=O)N1CCCC1C(=O)NNc1ccccc1)C(C)C` (configuration not stated), the AC50 in test [6] is 2.17 µM (active).
Consider `C/C(=N\NC(=O)c1nnn(-c2nonc2N)c1CN1CCc2ccccc21)c1ccccc1O`, for which the half-maximal activity concentration (AC50) in the test on INS1 is 1.98 µM (active); in test [6] it was 2.72 µM (active).
Take `CSc1ncnc2c1ncn2CCCNc1ccc(C)c(C)c1`: in test [2], the IC50 is 207 µM (active).
Take `O=C(N/N=C/c1ccc(OC(=O)c2ccco2)cc1)c1ccccn1`: the IC50 in the test “cells” is 20.6 µM (active).
On to `Oc1ccccc1/C=N/C1=NN(c2cccc(C(F)(F)F)c2)CC1`, for which, in test [2], the half-inhibitory concentration (IC50) is 16.9 µM (active).
